Experimental data taken from patent US20070244162A1 (priority 2005, published 2007).

Assays:
Type in all cases: cell-based
[1] = system: Botrytis cinerea
[2] = system: Phytophthora infestans; experiment: microbe, parasite or virus in culture; conditions: read-out: Fungicidal activity IC50, P. infestans
[3] = system: Stagonospora nodorum; experiment: microbe, parasite or virus in culture
[4] = system: Septoria tritici; experiment: microbe, parasite or virus in culture; conditions: for IC50: Zymoseptoria tritici, read-out: Fungicidal activity IC50, S. tritici
[5] = system: Monilinia fructicola; experiment: microbe, parasite or virus in culture; conditions: read-out: Fungicidal activity IC50, M. fructicola

Compound	Fungicidal activity IC50, B. cinerea [1]	IC50 [2]	Fungicidal activity IC50, S. nodorum [3]	IC50 [4]	IC50 [5]	IC50 ([3]; Parastagonospora nodorum, read-out: Fungicidal activity IC50, S. nodorum)	Fungicidal activity IC50, S. tritici [4]
Cc1ccc(-c2csc(-c3ccc(F)cc3F)c2C(O)c2cccnc2)s1 (stereo not shown) [Compound 14, 2-(2,4-Difluorophenyl)-4-(5-methyl-2-thienyl)-3-[(3-pyridyl)hydroxymethyl]-thiophene]	B (d)	> 100000 nM	A (b)	< 100 nM	< 100 nM		
OC(c1cccnc1)c1c(-c2ccc(Cl)cc2)csc1-c1ccc(Cl)s1 (stereo not shown) [Compound 4, 4-(4-Chlorophenyl)-2-(5-chloro-2-thienyl)-3-[(3-pyridyl)hydroxymethyl]-thiophene]	B (c)	> 100000 nM			< 100 nM	110 to 1000 nM	A (d)
OC(c1cccnc1)c1c(-c2ccc(Cl)cc2)csc1-c1ccc(Cl)cc1 (stereo not shown) [Compound 8, 2,4-Bis-(4-chlorophenyl)-3-[(3-pyridyl)hydroxymethyl]-thiophene]		> 100000 nM	B (d)				A (d)
OC(c1cccnc1)c1c(-c2ccc(F)cc2F)csc1-c1ccc(Cl)cc1 (stereo not shown) [Compound 6, 2-(4-Chlorophenyl)-4-(2,4-difluorophenyl)-3-[(3-pyridyl)hydroxymethyl]-thiophene]	B (d)	> 100000 nM	B (c)		< 100 nM		A (b)
OC(c1cccnc1)c1c(-c2ccc(Cl)cc2)csc1-c1cccs1 (stereo not shown) [Compound 9, 4-(4-Chlorophenyl)-3-[(3-pyridyl)hydroxymethyl]-2-(2-thienyl)thiophene]	B (d)	> 100000 nM	A (d)		< 100 nM		A (c)
OC(c1cccnc1)c1c(-c2cccs2)csc1-c1ccc(Cl)cc1 (stereo not shown) [Compound 12, 2-(4-Chlorophenyl)-3-[(3-pyridyl)hydroxymethyl]-4-(2-thienyl)thiophene]	A (d)	> 100000 nM	A (d)	< 100 nM	< 100 nM		
